For 36 molecules, IC50 results are on record in patent publication US11957687B2 (REGENERON PHARMACEUTICALS, INC., priority 2019, dated 2024).

Molecules are shown by their SMILES. pIC50: −log10 of the molar value.

HSD17B13, sequence (Q7Z5P4 other isoform, or with tags, fused parts or gaps): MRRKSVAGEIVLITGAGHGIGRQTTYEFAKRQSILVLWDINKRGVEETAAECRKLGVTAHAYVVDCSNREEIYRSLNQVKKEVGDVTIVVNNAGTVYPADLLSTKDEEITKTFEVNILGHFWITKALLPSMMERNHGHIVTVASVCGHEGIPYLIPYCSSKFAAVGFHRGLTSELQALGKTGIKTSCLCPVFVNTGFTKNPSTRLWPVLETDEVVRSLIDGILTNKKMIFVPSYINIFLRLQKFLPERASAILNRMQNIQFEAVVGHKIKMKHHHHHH

The assay concerns the target HSD17B13 (Homo sapiens (Human), UniProt Q7Z5P4). As to the kind of experiment: HSD17B13 enzymatic inhibition assay (150 nM or 50 nM HSD17B13). Type of assay: biochemical. The note with it: 50 nM HSD17B13; read-out: Inhibition of 50 nM of HSD17B13 IC50.
For `O=C(NC1c2ccc(Cl)cc2Oc2cccc(Cl)c21)c1cnc(C(F)(F)F)[nH]c1=O` (stereo not drawn) [Compound 191, N-(1,6-dichloro-9H-xanthen-9-yl)-6-oxo-2-(trifluoromethyl)-1,6-dihydropyrimidine-5-carboxamide], the pIC50 – broadly, the IC50 on a negative log10 scale, so that one unit is a factor of ten – is 6.06.
As for `O=C(NC1c2ccc(Cl)cc2Oc2cc(Cl)ccc21)c1cnc(C(F)(F)F)[nH]c1=O` [Compound 192, N-(3,6-dichloro-9H-xanthen-9-yl)-6-oxo-2-(trifluoromethyl)-1,6-dihydropyrimidine-5-carboxamide], the pIC50 is 6.64.
For the molecule `Cc1ccc2c(c1)Oc1cccc(C)c1C2NC(=O)c1cnc(C(F)(F)F)[nH]c1=O` (stereo not drawn) [Compound 193, N-(1,6-dimethyl-9H-xanthen-9-yl)-6-oxo-2-(trifluoromethyl)-1,6-dihydropyrimidine-5-carboxamide], the pIC50 was 5.99.
`Cc1cc(C(F)(F)F)[nH]c(=O)c1C(=O)NC1c2ccccc2Oc2ccccc21` [Compound 195, 4-methyl-2-oxo-6-(trifluoromethyl)-N-(9H-xanthen-9-yl)-1,2-dihydropyridine-3-carboxamide]: the pIC50 is 5.48.
As to `Cc1cc(C(F)(F)F)[nH]c(=O)c1C(=O)NC1c2ccccc2Oc2cc(Cl)ccc21` (stereo not drawn) [Compound 196, N-(3-chloro-9H-xanthen-9-yl)-4-methyl-2-oxo-6-(trifluoromethyl)-1,2-dihydropyridine-3-carboxamide], the pIC50 is 6.20.
For `COc1ccc2c(c1)Oc1ccccc1C2NC(=O)c1ccc(C(F)(F)F)[nH]c1=O` (stereo not drawn) [Compound 197, N-(3-methoxy-9H-xanthen-9-yl)-2-oxo-6-(trifluoromethyl)-1,2-dihydropyridine-3-carboxamide], the pIC50 was 5.95.
The same measure for `Cc1ccc2c(c1)Oc1cccc(C)c1C2NC(=O)c1c(C)cc(C(F)(F)F)[nH]c1=O` (stereo not drawn) [Compound 199, N-(1,6-dimethyl-9H-xanthen-9-yl)-4-methyl-2-oxo-6-(trifluoromethyl)-1,2-dihydropyridine-3-carboxamide]: 5.29; for `Cc1cc(C(F)(F)F)[nH]c(=O)c1C(=O)NC1c2ccc(Cl)cc2Oc2cccc(Cl)c21` (stereo not drawn) [Compound 200, N-(1,6-dichloro-9H-xanthen-9-yl)-4-methyl-2-oxo-6-(trifluoromethyl)-1,2-dihydropyridine-3-carboxamide]: < 5.00.
Consider `CCc1cc(C(F)(F)F)[nH]c(=O)c1C(=O)NC1c2ccc(C)cc2Oc2cc(C)ccc21` [Compound 201, N-(3,6-dimethyl-9H-xanthen-9-yl)-4-ethyl-2-oxo-6-(trifluoromethyl)-1,2-dihydropyridine-3-carboxamide], for which the pIC50 was 6.37.
`Cc1ccc2c(c1)Oc1cc(C)ccc1C2NC(=O)c1c(C)cc(C(F)(F)F)[nH]c1=O` [Compound 202, N-(3,6-dimethyl-9H-xanthen-9-yl)-4-methyl-2-oxo-6-(trifluoromethyl)-1,2-dihydropyridine-3-carboxamide]: the pIC50 was 6.46.
As for `Cc1cc(C(F)(F)F)[nH]c(=O)c1C(=O)NC1c2ccc(Cl)cc2Oc2cc(Cl)ccc21` [Compound 203, N-(3,6-dichloro-9H-xanthen-9-yl)-4-methyl-2-oxo-6-(trifluoromethyl)-1,2-dihydropyridine-3-carboxamide], the pIC50 was 5.98.
Then `CCc1cc(C(F)(F)F)[nH]c(=O)c1C(=O)NC1c2ccc(C)cc2Oc2cccc(C)c21` (stereo not drawn) [Compound 204, N-(1,6-dimethyl-9H-xanthen-9-yl)-4-ethyl-2-oxo-6-(trifluoromethyl)-1,2-dihydropyridine-3-carboxamide], with < 5.00; and `CCc1cc(C(F)(F)F)[nH]c(=O)c1C(=O)NC1c2ccc(Cl)cc2Oc2cccc(Cl)c21` (stereo not drawn) [Compound 205, N-(1,6-dichloro-9H-xanthen-9-yl)-4-ethyl-2-oxo-6-(trifluoromethyl)-1,2-dihydropyridine-3-carboxamide], with < 5.00; and `CCc1cc(C(F)(F)F)[nH]c(=O)c1C(=O)NC1c2ccc(Cl)cc2Oc2cc(Cl)ccc21` [Compound 206, N-(3,6-dichloro-9H-xanthen-9-yl)-4-ethyl-2-oxo-6-(trifluoromethyl)-1,2-dihydropyridine-3-carboxamide], with 6.54.
In the case of `CCCc1cc(C(F)(F)F)[nH]c(=O)c1C(=O)NC1c2ccc(C)cc2Oc2cc(C)ccc21` [Compound 207, N-(3,6-dimethyl-9H-xanthen-9-yl)-2-oxo-4-propyl-6-(trifluoromethyl)-1,2-dihydropyridine-3-carboxamide], the pIC50 was 6.74.
For the molecule `CCCc1cc(C(F)(F)F)[nH]c(=O)c1C(=O)NC1c2ccc(C)cc2Oc2cccc(C)c21` (stereo not drawn) [Compound 208, N-(1,6-dimethyl-9H-xanthen-9-yl)-2-oxo-4-propyl-6-(trifluoromethyl)-1,2-dihydropyridine-3-carboxamide], the pIC50 was < 5.00.
On to `CCCc1cc(C(F)(F)F)[nH]c(=O)c1C(=O)NC1c2ccc(Cl)cc2Oc2cccc(Cl)c21` (stereo not drawn) [Compound 209, N-(1,6-dichloro-9H-xanthen-9-yl)-2-oxo-4-propyl-6-(trifluoromethyl)-1,2-dihydropyridine-3-carboxamide], for which the pIC50 was 5.46.
`CCCc1cc(C(F)(F)F)[nH]c(=O)c1C(=O)NC1c2ccc(Cl)cc2Oc2cc(Cl)ccc21` [Compound 210, N-(3,6-dichloro-9H-xanthen-9-yl)-2-oxo-4-propyl-6-(trifluoromethyl)-1,2-dihydropyridine-3-carboxamide]: the negative-log IC50 (pIC50) is 6.03.
As for `Cc1cc(C(=O)NC2c3ccc(Cl)cc3Oc3cccc(Cl)c32)c(=O)[nH]c1C(F)(F)F` (stereo not drawn) [Compound 211, N-(1,6-dichloro-9H-xanthen-9-yl)-5-methyl-2-oxo-6-(trifluoromethyl)-1,2-dihydropyridine-3-carboxamide], the pIC50 is 6.06.
The same measure for `CCc1ccc(C(=O)NC2c3ccccc3-c3ccccc32)c(=O)[nH]1` [Compound 212, 6-ethyl-N-(9H-fluoren-9-yl)-2-oxo-1,2-dihydropyridine-3-carboxamide]: < 5.00; for `Cc1cc(C(F)(F)F)[nH]c(=O)c1C(=O)NC1c2ccccc2-c2ccccc21` [Compound 213, N-(9H-fluoren-9-yl)-4-methyl-2-oxo-6-(trifluoromethyl)-1,2-dihydropyridine-3-carboxamide]: 5.65; for `Cc1c(C(F)(F)F)[nH]c(=O)c(C(=O)NC2c3ccccc3-c3ccccc32)c1C` [Compound 214, N-(9H-fluoren-9-yl)-4,5-dimethyl-2-oxo-6-(trifluoromethyl)-1,2-dihydropyridine-3-carboxamide]: < 5.00.
The same measure for `O=C(NCc1ccc(Cl)cc1Oc1cccc(Cl)c1)c1ccc(C(F)(F)F)[nH]c1=O` [Compound 216, N-(4-chloro-2-(3-chlorophenoxy)benzyl)-2-oxo-6-(trifluoromethyl)-1,2-dihydropyridine-3-carboxamide]: 5.50; for `O=C(NCC1c2ccccc2-c2ccccc21)c1ccc(C(F)(F)F)[nH]c1=O` [Compound 217, N-((9H-fluoren-9-yl)methyl)-2-oxo-6-(trifluoromethyl)-1,2-dihydropyridine-3-carboxamide]: 5.08.
Take `Cc1ccc(C(C)NC(=O)c2ccc(C(F)(F)F)[nH]c2=O)cc1` (stereo not drawn) [Compound 218]: the pIC50 is 5.02.
For `O=C(NC(c1ccc(Cl)cc1)c1ccncn1)c1ccc(C(F)(F)F)[nH]c1=O` (stereo not drawn) [Compound 219, N-((4-chlorophenyl)(pyrimidin-4-yl)methyl)-2-oxo-6-(trifluoromethyl)-1,2-dihydropyridine-3-carboxamide], the pIC50 is < 5.00.
As for `O=C(NC(c1ccc(Cl)cc1)c1cncnc1)c1ccc(C(F)(F)F)[nH]c1=O` (stereo not drawn) [Compound 220, N-((4-chlorophenyl)(pyrimidin-5-yl)methyl)-2-oxo-6-(trifluoromethyl)-1,2-dihydropyridine-3-carboxamide], the pIC50 was < 5.00.
Consider `O=C(NC(c1ccccc1)c1cccc(=O)[nH]1)c1ccc(C(F)(F)F)[nH]c1=O` (stereo not drawn) [Compound 221, 2-oxo-N-((6-oxo-1,6-dihydropyridin-2-yl)(phenyl)methyl)-6-(trifluoromethyl)-1,2-dihydropyridine-3-carboxamide], for which the pIC50 is 5.19.
On to `CC(NC(=O)c1ccc(C(F)(F)F)[nH]c1=O)c1ccc(Cl)cc1Oc1cccc(Cl)c1` (stereo not drawn) [Compound 222, N-(1-(4-chloro-2-(3-chlorophenoxy)phenyl)ethyl)-2-oxo-6-(trifluoromethyl)-1,2-dihydropyridine-3-carboxamide], for which the pIC50 is 5.66.
Consider `O=C(Nc1cccc(O)c1)c1ccc(C(F)(F)F)[nH]c1=O` [Compound 224, N-(3-hydroxyphenyl)-2-oxo-6-(trifluoromethyl)-1,2-dihydropyridine-3-carboxamide], for which the pIC50 is < 5.00.
In the case of `CCc1cccc(NC(=O)c2ccc(C(F)(F)F)[nH]c2=O)c1` [Compound 225, N-(3-ethylphenyl)-2-oxo-6-(trifluoromethyl)-1,2-dihydropyridine-3-carboxamide], the pIC50 is 5.33.
The same measure for `Cc1cccc(NC(=O)c2ccc(C(F)(F)F)[nH]c2=O)c1` [Compound 226, 2-oxo-N-(m-tolyl)-6-(trifluoromethyl)-1,2-dihydropyridine-3-carboxamide]: 5.09.
On to `O=C(Nc1cccc(Cl)c1)c1ccc(C(F)(F)F)[nH]c1=O` [Compound 227, N-(3-chlorophenyl)-2-oxo-6-(trifluoromethyl)-1,2-dihydropyridine-3-carboxamide], for which the pIC50 was 5.01.
Turning to `O=C(Nc1cccc2cc(O)ccc12)c1ccc(C(F)(F)F)[nH]c1=O` [Compound 229, N-(6-hydroxynaphthalen-1-yl)-2-oxo-6-(trifluoromethyl)-1,2-dihydropyridine-3-carboxamide], the pIC50 was 5.85.
For the molecule `Cc1ccc2c(c1O)CCCC2NC(=O)c1ccc(C(F)(F)F)[nH]c1=O` (stereo not drawn) [Compound 231, N-(5-hydroxy-6-methyl-1,2,3,4-tetrahydronaphthalen-1-yl)-2-oxo-6-(trifluoromethyl)-1,2-dihydropyridine-3-carboxamide], the pIC50 is 7.52.
Turning to `COc1c(C)ccc2c1CCCC2NC(=O)c1ccc(C(F)(F)F)[nH]c1=O` (stereo not drawn) [Compound 232, N-(5-methoxy-6-methyl-1,2,3,4-tetrahydronaphthalen-1-yl)-2-oxo-6-(trifluoromethyl)-1,2-dihydropyridine-3-carboxamide], the pIC50 was 5.57.
